{"source": "patent US9671412B2", "about": "“Beclin 1 phosphorylation” (Board of Regents, The University of Texas System, priority 2012, dated 2017)", "key": {"GST-Akt1": {"biological_target": "T1, GST-Akt1 (Homo sapiens, UniProt P31749)", "T1 construct": "GST", "assay": "In vitro phosphorylation of Beclin 1 S295 by GST-Akt1", "assay_type": "biochemical", "conditions": "in vitro kinase reaction", "from_the_text": "(§1) We examined whether autophagy execution proteins could be targets of Akt. We focused on Beclin 1 because of its role in autophagy and tumor suppression (4)."}, "[1]": {"system": "MCF7 human breast carcinoma cells", "assay": "Basal autophagy (GFP-LC3) in transfected MCF7 cells", "assay_type": "cell-based", "conditions": "lesser extent with Beclin 1 AA than with wild-type Beclin 1", "from_the_text": "We transfected MCF7 human breast carcinoma cells [which express low amounts of endogenous Beclin 1 (14)] with GFP-LC3 and wild-type Beclin 1 or Beclin 1 S295A or AA mutants. […] Thus, Akt inhibits basal autophagy both through Beclin 1 phosphorylation-dependent and independent mechanisms."}, "HeLa cells": {"system": "HeLa cells", "assay": "Autophagy induction in HeLa cells transfected with empty vector or WT EGFR", "assay_type": "cell-based", "from_the_text": "We investigated the effects of active EGFR mutants that constitutively bind Beclin 1 on autophagy. […] In cells transfected with the active EGFR mutants, L858R or 4746-750, starvation and Torin1 induced lower levels of autophagy. […] Thus, active EGFR mutants suppress autophagy in a manner that is partially independent of mTOR."}, "mTOR": {"system": "mTOR", "assay": "Phospho-4E-BP1 (mTOR phosphorylation target) in HeLa cells", "assay_type": "cell-based", "conditions": "including those expressing myr-Akt1", "from_the_text": "We investigated whether Akt inhibits autophagy by directly regulating the core autophagy machinery independently of mTOR. Expression of constitutively active myristoylated (5) and tagged Akt1 (Flag-tagged myr-Akt) in HeLa cells inhibited autophagy during growth in normal medium, in response to serum and amino acid starvation (a physiological inducer of autophagy), in response to treatment with an ATP-competitive inhibitor of mTOR, Torin1 (6), and in response to both starvation and Torin1 treatment. In all conditions, cells expressing myr-Akt1 had decreased numbers of puncta upon transfection with a fusion protein of green fluorescent protein with LC3 (GFP-LC3), a fluorescent marker of autophagosomes; increased amounts of p62 (a substrate that is degraded by autophagy); and increased amounts of the cytosolic non-lipidated form of LC3, LC3-I, and of total LC3 (7). Amounts of phospho-4E-BP1, a phosphorylation target of mTOR, were decreased in Torin1-treated cells, including those expressing myr-Akt1."}, "[2]": {"system": "Beclin 1 S295 / S234 phosphorylation", "assay": "Phosphorylation of endogenous Beclin 1 S295 and S234 in HeLa cells expressing myr-Akt1", "assay_type": "cell-based", "from_the_text": "as §1"}, "[3]": {"system": "EGFR Δ746-750 (HCC827 cells)", "from_the_text": "(§2) We investigated whether this mechanism underlies EGFR regulation of autophagy in NSCLC cells with activating mutations in EGFR. We used two NSCLC lines: HCC827 cells have the Δ746-750 EGFR activating mutation and are TKI-sensitive, and H1975 cells have the L858R EGFR activating mutation and are TKI-resistant due to a T790M mutation."}, "HCC827 xenografts": {"system": "HCC827 xenografts", "assay": "HCC827 tumor xenografts under TKI therapy", "assay_type": "in vivo", "conditions": "control mice without induction or with induced WT Beclin 1", "from_the_text": "as §2"}, "[4]": {"system": "EGFR L858R/T790M (H1975 cells)", "assay": "EGFR signalling, Beclin 1 interactome and Beclin 1 tyrosine phosphorylation in H1975 cells", "assay_type": "cell-based, human", "from_the_text": "as §2"}, "H1975 cells": {"system": "H1975 cells", "assay": "Autophagy (GFP-LC3 puncta, LC3-II, p62) in H1975 NSCLC cells", "assay_type": "cell-based, human", "from_the_text": "(§3) To evaluate whether EGFR activation inhibits autophagy, we used a human non-small cell lung carcinoma (NSCLC) cell line, A549, that express wild-type (WT) EGFR (VanMeter et al., 2008). We measured autophagy by examining the subcellular localization of a green fluorescent autophagy reporter protein, GFP-LC3, and by measuring levels of LC3-II, the autophagosome-associated lipidated form of LC3, and p62, an autophagic substrate (Mizushima et al., 2010).\nas §2, with “mutation. First, we evaluated if TKI treatment induces autophagy; […]. Thus, TKI therapy disrupts the EGFR/Beclin 1 complex and induces autophagy in TKI-sensitive but not TKI-resistant cells.” for “mutation.”"}, "HCC827 cells": {"system": "HCC827 cells", "assay": "Autophagy (GFP-LC3 puncta, LC3-II, p62) in HCC827 NSCLC cells", "assay_type": "cell-based, human", "from_the_text": "as §2"}, "[5]": {"system": "myr-Akt1-expressing Rat2 cell tumors", "assay": "Tumors of myr-Akt1-expressing Rat2 cells in NOD SCID mice", "assay_type": "in vivo", "conditions": "co-expressed with myr-Akt1 in Rat2 cells", "from_the_text": "To examine the role of Akt-mediated Beclin 1 phosphorylation in Akt-driven tumorigenesis, we transduced Rat2 fibroblasts with myr-Akt1 (which transforms rat fibroblasts (15)) and either wild-type Beclin 1 or Beclin 1 phosphorylation site mutants. Myr-Akt1 suppressed autophagy in Rat2 fibroblasts, reduced co-immunoprecipitation of Class III PI3K Vps34 with Beclin 1, and decreased Beclin 1-associated lipid kinase activity. […] Expression of myr-Akt1 had minimal effects on the interaction of Beclin 1 AA and Vps34 or on the amounts of Beclin 1 AA-associated Vps34 activity. Thus, myr-Akt1 suppresses Beclin 1-associated Vps34 activity and autophagy in a manner that is partially reversed by a Beclin 1 mutant resistant to Akt-mediated phosphorylation.\nAll myr-Akt1-expressing Rat2 cells formed tumors in immunodeficient NOD SCID® mice, but tumor growth rate and tumor mass upon necropsy were less for cells expressing Beclin 1 AA than for cells expressing wild-type Beclin 1 or myr-Akt1 alone. Tumors expressing myr-Akt1 alone had numerous cells displaying p62 immunoreactivity (indicating autophagy suppression) whereas very few p62 immunoreactive cells were detected in tumors from cells expressing both myr-Akt1 and Beclin 1 AA. […] Tumors expressing active Akt alone or with Beclin 1 had higher mean mitotic counts (n=8.39; n=8.37, respectively) than tumors expressing myr-Akt1 and Beclin 1 AA (n=3.67) (P<0.0001). They also had increased Ki-67 labeling, and decreased TUNEL staining. Thus, the expression of a mutant of Beclin 1 that cannot be phosphorylated by Akt increases tumor cell autophagy, decreases tumor growth rate and size, decreases tumor cellular proliferation, and increases tumor cell death."}, "[6]": {"system": "A549 cells (wild-type EGFR)", "assay": "Autophagy in serum-starved A549 cells", "assay_type": "cell-based, human", "conditions": "addition for 30 min", "from_the_text": "as §3"}}, "note": "“Also recorded” adds a separate entry of the source."}
{"compound": "CCN(CC)CCCCN1c2ccccc2Oc2ccc(Cl)cc21", "note": "[Akt inhibitor X]", "values": [{"measurement": "GST-Akt1 phosphorylation of Beclin 1 S295 in vitro", "setting": "GST-Akt1", "value": "partially blocked"}]}
{"compound": "NC1(c2ccc(-c3nc4ccn5c(=O)[nH]nc5c4cc3-c3ccccc3)cc2)CCC1", "note": "[MK-2206]", "values": [{"measurement": "basal autophagy", "setting": "[1]", "value": "increased basal autophagy"}, {"measurement": "GST-Akt1 phosphorylation of Beclin 1 S295 in vitro", "setting": "GST-Akt1", "value": "partially blocked"}]}
{"compound": "CCC(=O)N1CCN(c2ccc(-n3c(=O)ccc4cnc5ccc(-c6cnc7ccccc7c6)cc5c43)cc2C(F)(F)F)CC1", "note": "[Torin1]", "values": [{"measurement": "autophagy", "setting": "HeLa cells", "value": "induced autophagy"}, {"measurement": "amounts of phospho-4E-BP1", "setting": "mTOR", "value": "decreased"}, {"measurement": "myr-Akt1-driven phosphorylation of endogenous Beclin 1 S295 and S234", "setting": "[2]", "value": "not reversed"}]}
{"compound": "C#Cc1cccc(Nc2ncnc3cc(OCCOC)c(OCCOC)cc23)c1", "note": "[erlotinib]", "values": [{"measurement": "Beclin 1/EGFR interaction", "setting": "[3]", "value": "blocked; also recorded: disruption of EGFR/Beclin 1 binding"}, {"measurement": "Beclin 1 tyrosine phosphorylation", "setting": "[3]", "value": "decreased"}, {"measurement": "EGFR phosphorylation", "setting": "[3]", "value": "EGFR dephosphorylation"}, {"measurement": "endogenous Beclin 1 Y233 phosphorylation", "setting": "[3]; phosphospecific antibody", "value": "blocked"}, {"measurement": "time to complete regression of all tumor xenografts", "setting": "HCC827 xenografts", "value": "≤ 14", "unit": "days"}, {"measurement": "Beclin 1/EGFR interaction", "setting": "[4]", "value": "not"}, {"measurement": "endogenous Beclin 1 Y233 phosphorylation", "setting": "[4]; phosphospecific antibody", "value": "not"}, {"measurement": "LC3-II conversion and p62 degradation", "setting": "H1975 cells; H1975 cells", "value": "not"}, {"measurement": "GFP-LC3 puncta", "setting": "H1975 cells; H1975 cells stably transfected with GFP-LC3", "value": "not"}, {"measurement": "LC3-II conversion and p62 degradation", "setting": "HCC827 cells; HCC827 cells", "value": "demonstrated LC3-II conversion and p62 degradation"}, {"measurement": "GFP-LC3 puncta", "setting": "HCC827 cells; HCC827 cells stably transfected with GFP-LC3", "value": "increased GFP-LC3 puncta in a dose-dependent manner"}]}
{"compound": "Beclin 1 AA: Beclin 1 double mutation S234A/S295A, cannot be phosphorylated by Akt; expressed in cells", "values": [{"measurement": "mean mitotic counts of tumors", "setting": "[5]", "value": 3.67}, {"measurement": "tumors displaying degenerative features with numerous pyknotic nuclei", "setting": "[5]", "value": 60, "unit": "%"}]}
{"compound": "Beclin 1: wild-type human Beclin 1, essential autophagy and tumor suppressor protein; expressed in cells", "values": [{"measurement": "mean mitotic counts of tumors", "setting": "[5]", "value": 8.37}]}
{"compound": "epidermal growth factor [EGF, growth factor ligand that triggers EGFR signaling]", "values": [{"measurement": "autophagy induced by serum depletion", "setting": "[6]", "value": "partially reversed autophagy induction"}]}
